In ChEMBL document CHEMBL1201862, “PubChem BioAssay data set” (2004):
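Method: 48-hour compound exposure of cells in 96-well plates, five concentrations, linear interpolation of endpoints. GI50 = concentration required for 50% inhibition of growth.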 Calls of active or inactive are those of the source. No stated cut-off is given here; in the data, active = GI50 up to about 1.1 µM and inactive = higher.

Legend:
Assay in all cases: NCI-60 cell line screen, 48 h
[1] = system: CCRF-CEM
[2] = system: NCI-H460
[3] = system: MDA-MB-231
[4] = system: HOP-92
[5] = system: MDA-N
[6] = system: NCI/ADR-RES
[7] = system: RPMI-8226
[8] = system: LOX IMVI
[9] = system: SNB-19
[10] = system: OVCAR-5
[11] = system: HCC 2998
[12] = system: 786-0
[13] = system: MCF7
[14] = system: EKVX
[15] = system: SK-MEL-28
[16] = system: HCT-116
[17] = system: K562
[18] = system: IGROV-1
[19] = system: OVCAR-3
[20] = system: RXF 393

Measured: GI50

CCOC1CC(=O)c2c(Br)sc(Br)c21 (stereo not given)
inactive: [1] 7.31 µM | [2] 20.7 µM | [3] 19.5 µM | [4] 17.5 µM | [5] 22.3 µM | [6] 37.6 µM | [7] 17.9 µM | [8] 19.5 µM | [9] 23.8 µM | [10] 23.7 µM | [11] 21.9 µM | [12] 30.7 µM | [13] 21.2 µM | [14] 21.7 µM | [15] 19.6 µM | [16] 21.2 µM | [17] 17.3 µM | [18] 15.5 µM | [19] 14.6 µM | [20] 18.5 µM
